The values that follow come from US9555086B2, “Compositions and methods for inducing an immune response” (The Regents of the University of Michigan, priority 2010, dated 2017).

Data set [1] relates to antioxidative signaling pathway. As to conditions: read-out: IC50 as activator of antioxidative signaling pathway; cited from earlier work.
Data set [2] concerns trypsin and chymotrypsin. The experiment in a line: Trypsin/chymotrypsin stability assay.
Data set [3] concerns trypsin and chymotrypsin. As to conditions: pH 8.
A further data set relates to CD8+ and CD8− DC. The experiment in a line: Cytokine production by splenic DC subsets (Luminex). It is filed as cell-based, mouse. Particulars: CD11c+CD8− DCs; 50 μg/ml peptide. On the procedure: Splenic CD8+ and CD8− DC were isolated from DBA/1 mice as above and cultured in 96-well plates over time in the presence or absence of ISL-positive (65-79*0401) or ISL-negative (65-79*0402) peptides (50 μg/ml). At various time points thereafter, supernatants were collected and assayed for cytokine content, using the Luminex platform.
DBA/1 splenic unfractionated CD11c+ DCs (CD11c+), or their purified CD11c+CD8+ DCs (CD8+) or CD11c+CD8− DCs (CD8−) subsets were cultured with the ISL 65-79*0401 or ISL-negative control 65-79*0402 or medium. Supernatants were collected at different time points and assayed for cytokine content using a Luminex platform.
To determine the rate of NO production, cells were loaded with 20 μM of the fluorescent NO probe 4,5-diaminofluorescein diacetate (DAF-2DA) and the fluorescence level was recorded every 5 minutes over a period of 500 minutes using a Fusion αHT system (PerkinElmer Life Sciences) at an excitation wavelength of 488 nm and emission wavelength of 515 nm. To determine IDO enzymatic activity, the generation of its product, kynurenine was measured (Takikawa et al. 1988. J Biol Chem 263:2041-2048.; herein incorporated by reference in its entirety). Cytokine concentrations were measured in cell culture supernatants using a Luminex platform (Millipore Corporation, Danvers, Mass.). In some experiments, cytokines were determined using ELISA (Quantikine®, R&D Systems, Minneapolis, Minn.) following the manufacture's instruction.

Another data set has as its system Th17 cells. The data set can be described thus: ISL polarizing effect in vivo (CII in CFA immunization). More on the design: species or system DBA/1 mice. As to conditions: 10 μg co-administered with CII in CFA, footpad; day 7. On the procedure:
(A) DBA/1 mice were immunized with CII in CFA in the presence of PBS, 65-79*0401 or 65-79*0402. On day 7, cells from draining lymph nodes were isolated, cultured for 6 hours with PMA, Ionomycin and Brefeldin A and then stained with anti-mouse CD4, IL17A and IFN-γ as above. On the left: Representative dot plots showing percentages of IL17A+ and IFN-γ+ cells obtained from gated CD4+ cells. On the right, bar graphs showing results as mean±SD of duplicate experiments. (B) DBA/1 and CII-TCR Tg mice were immunized as in (A). On day 7, splenic cells were isolated and cultured with the synthetic peptide CII260-267 (5 μg/ml). Supernatants were collected every 24 hours and assayed for IL-17 levels by ELISA.
Mice were injected subcutaneously in the footpad with 100 μg of chicken collagen type II (CII) (Chondrex, Inc, Redmond, Wash.) emulsified in CFA (4 mg/ml). The inoculums contained 10 μg of either ISL-positive 65-79*0401 or ISL-negative 65-79*0402 ligands in PBS, or an equal volume of PBS alone. Animals were sacrificed 7 days after immunization. For Th17 quantification studies, inguinal and popliteal lymph nodes were collected and single cell suspensions were prepared. Unfractionated lymph node cells were cultured with PMA, Ionomycin and Brefeldin A for 6 hours as above. Cells were stained with FITC anti-mouse CD4 or isotype controls, followed by fixation and permeabilization using a Cytofix-Cytoperm™ kit. After permeabilization, intracellular staining was performed using PE-conjugated anti-mouse IL17A and APC-conjugated anti-mouse IFN-γ and cells were analyzed by flow cytometry as above. To measure IL-17 production, splenocytes from mice immunized as above were stimulated in vitro with 5 μg of CII259-273 peptide. At different time points thereafter, supernatants were collected and assayed for IL-17 by ELISA as above.

For data set [4], the system named is Human fibroblast M1 cells. The data set can be described thus: Nitric Oxide Assay in human fibroblast M1 cells. It is filed as cell-based. On the procedure:
FIGS. 17A and 17B show dose-response experiments of NO production rate induced by cyclic analogs. Human M1 fibroblasts were incubated with different concentrations of the listed cyclic peptides, or with 50 μM of positive (65-79*0401) or negative (65−79*0402) control peptides. NO production rates were determined using the fluorescent probe 4,5-diaminofluorescein diacetate (DAF-2DA) (See Ling et al., Arthritis Res Ther 2007, 9, R5; Ling et al., J. J Immunol 2007, 179, 6359; Ling et al., Arthritis Rheum 2006, 54, 3423).
Nitric Oxide Assay. Human fibroblast M1 cells were plated at a density of 1×10^5 cells per well in 96-well plates the day prior to the Nitric Oxide assay. To determine the rate of NO production in fibroblast, cells were first loaded with 20 μM of the fluorescent NO probe 4,5-diaminofluorescein diacetate (DAF-2DA), incubated in the dark at 37° C. for 1 hour and washed in 100 μL of DMEM/phenol red-free medium. The fluorescence level was recorded every 5 minutes over a period of 500 minutes, using a Fusion αHT system (PerkinElmer Life Sciences) at an excitation wavelength of 488 nm and emission wavelength of 515 nm. The NO production rate is expressed as the mean±SEM fluorescence units per minute.

pIC50: −log10 of the molar value. “Also recorded” adds a separate entry of the source. Numbered stars: 1 amine (or outer) side, 2 acyl side, 3 side chain; on linkers, the order of the positions; unused ones are H or OH. Bridge positions count the residues as written; N and C are the ends. Square brackets hold non-standard residues; d marks the D form. Ends that are not written are not given here. Peptide text beside a SMILES is read from it. CO = O=C([*:1])[*:2]; Nlys = NCCCCNCC(=O)O

Broadly, the pIC50 is −log10 of the IC50, conventionally taken in molar units. In the case of `C=C(C)CCOP(=O)(O)OP(=O)(O)O` [IPP, Isopentenyl diphosphate], the pIC50 in data set [1] is 10.77.

`C[C@H](NC(=O)CN1CCCCNC(=O)NCCCCN(C(=O)[C@@H](N)Cc2c[nH]c3ccccc23)CC(=O)N[C@@H](CCC(N)=O)C(=O)N[C@@H](CCCCN)C(=O)N[C@@H](CCCNC(=N)N)C1=O)C(N)=O` [c(HS4-4)] (H-W[Nlys]QKR[Nlys]A-NH2; linker 2-6 via CO): in the data set on trypsin and chymotrypsin [2] (4 hours of incubation, 37° C., pH 8), the “stability towards trypsin/chymotrypsin degradation (HPLC)” value is on record as “completely stable”. Besides, in the data set on trypsin and chymotrypsin [2] (after trypsin/chymotrypsin incubation), the “cleavage fragments in MS analysis” value is reported as “no fragments were observed”.

For H-KDLLEQRRAAVDTYC-NH2 [65-79*0404], the “degradation by trypsin/chymotrypsin (HPLC)” value in the data set on trypsin and chymotrypsin [3] was “degraded completely”.

With “H-Lys-Asp-Ile-Leu-Glu-Asp-Glu-Arg-Ala-Ala-Val-Asp-Thr-Tyr-Cys-NH2 (H-KDILEDERAAVDTYC-NH2) [65-79*0402, reference compound]”, the IL-6 production result in the data set on CD8+ and CD8− DC is listed as “did not trigger any increased production; also recorded: did not trigger any cytokine production”. For the same compound, the “Th17 abundance in draining lymph nodes” value in the data set with Th17 cells is “no effect”.

Take “c(HS6-2): cyclic analog named only in b214; probably a misprint of c(HS2-4) (QRRAA; bridge (positions not given here) via CO; also: urea backbone cyclisation, places not given here)”: the “potency in activating NO production (in words)” value in data set [4] is given as “potent analogs”.
